Results: article PMC8395886, “Square-Planar vs. Trigonal Bipyramidal Geometry in Pt(II) Complexes Containing Triazole-Based Glucose Ligands as Potential Anticancer Agents” (International Journal of Molecular Sciences, 2021)
Read-outs that look alike come from different tables or passages of the source.

Key:
[1] = system: HaCaT (human keratinocyte cells); experiment: MTT cytotoxicity assay on HaCaT cells; assay type: cell-based; settings: 48 h incubation
Protocol: (§7) A431, H9c2, and MCF7 cells were purchased from American Type Culture Collection (ATCC). HaCaT cells were from Innoprot (Derio, Spain). Cells were cultured in DMEM (Sigma-Aldrich, St. Louis, MO, USA), supplemented with 10% fetal bovine serum (HyClone, Thermo Scientific, Logan, UT, USA) and antibiotics in a 5% CO2 humidified atmosphere at 37 °C. The growth medium of H9c2 cells was implemented with 2 mM L-glutamine and 2 mM sodium pyruvate. Cells were seeded in 96-well plates at a density of 2.5 × 10^3 cells per well. Different drugs were added at increasing concentrations 24 h after seeding for dose-dependent assays. […] After 48 h incubation, cell viability was assessed by MTT assay, as described in a previous study [30]. Control experiments were performed by either growing cells in the absence of the compound or by supplementing the cell cultures with identical volumes of buffer (water:acetone, 1:1 v/v). Each value is the mean of three independent experiments, each with three determinations. Significance was determined by Student’s t-test.

[2] = system: A431 (epidermoid carcinoma cells); experiment: MTT cytotoxicity assay on A431 cells; assay type: cell-based, human; settings: for IC50: 48 h incubation; for Selectivity Index H9c2/A431 / Selectivity Index HaCaT/A431: IC50 immortalized cells/IC50 cancer cells
Protocol: as §7

[3] = system: H9c2 (rat cardiomyoblast cells); experiment: MTT cytotoxicity assay on H9c2 cells; assay type: cell-based; settings: 48 h incubation
Protocol: as §7

[4] = system: MCF-7 (breast cancer cells); experiment: MTT cytotoxicity assay on MCF7 cells; assay type: cell-based, human; settings: for IC50: 48 h incubation; for Selectivity Index H9c2/MCF7 / Selectivity Index HaCaT/MCF7: IC50 immortalized cells/IC50 cancer cells
Protocol: as §7

[5] = In-solution stability by 1H-NMR over time; assay type: physicochemical
Protocol: To compare the solution stability of the complexes, ^1H-NMR and UV–vis spectra over time were recorded for 4Pt type species dissolved in diverse aqueous (phosphate buffer, PB; pH 7.4): organic solvent mixtures, i.e., 1:1 v/v D2O:acetone-d6; 9:1 v/v PB:DMSO-d6; 1:1 v/v PB:DMSO-d6 and DMSO-d6. These solvents were selected to verify the stability in pseudo-physiological conditions in the presence of solvents with different coordinating properties and concentrations.
The appropriate 4Pt complex (5 mg) was dissolved in 0.5 mL of DMSO-d6 or acetone-d6. Calculated volumes of solution were diluted to 600 µL with the appropriate volumes of PB in D2O (25 mM, pH 7.4) and/or DMSO-d6 to provide a 1 mM solution of the complex with the appropriate v/v ratio of solvents. Samples were incubated at 37 °C, and NMR spectra were recorded at different times.

[6] = system: HaCaT (human keratinocyte cells); settings: 48 h incubation; read-out: MTT IC50 48 h, HaCaT; cited from earlier work
[7] = system: A431 (epidermoid carcinoma cells); settings: 48 h incubation; read-out: MTT IC50 48 h, A431; cited from earlier work
A431 cells [8] = experiment: GLUT1-inhibitor-mediated cytotoxicity assay (quercetin, MTT); assay type: cell-based, human
Protocol: (§1) The cell death mechanism induced by 4Pt-py was analyzed on A431 cells. First, the internalization process of 4Pt-py was evaluated by studying the involvement of GLUT receptors. In particular, 4Pt-py internalization and cytotoxicity were tested using quercetin as a glucose transporter inhibitor [24, 30, 42]. […] The 10 µM concentration used was very similar to the IC50 value, and then, a double value (20 µM) was also used to definitely exclude necrosis at very high concentrations.
(§2) A431, H9c2, and MCF7 cells were purchased from American Type Culture Collection (ATCC). HaCaT cells were from Innoprot (Derio, Spain). Cells were cultured in DMEM (Sigma-Aldrich, St. Louis, MO, USA), supplemented with 10% fetal bovine serum (HyClone, Thermo Scientific, Logan, UT, USA) and antibiotics in a 5% CO2 humidified atmosphere at 37 °C. The growth medium of H9c2 cells was implemented with 2 mM L-glutamine and 2 mM sodium pyruvate. […] After 48 h incubation, cell viability was assessed by MTT assay, as described in a previous study. […] Significance was determined by Student’s t-test.
(§3) Figure 8 Analysis of the mechanism of action of 4Pt-py. […] Cell viability was assessed using the MTT assay after 48 h incubation. […] (B) Cells were incubated with increasing amounts of 4Pt-py for 48 h, and the release of LDH was measured. […] The % of LDH release was calculated as described in the Materials and Methods section.

[9] = system: MCF-7, A431, H9c2 and HaCaT cells; experiment: MTT assay, all the analyzed cell lines (statement in words); assay type: cell-based; settings: 48 h
Protocol: The biological effect of the Pt-compounds was tested on two human tumor cell lines, MCF-7 (breast cancer cells) and A431 (epidermoid carcinoma cells), and two non-tumorigenic cell lines, H9c2 (rat cardiomyoblast cells), and HaCaT (human keratinocyte cells), using the MTT assay. […] Indeed, due to their inertness towards the substitution of the sugar ligand, their biological activity can be influenced by the nature of the sugar ligand, whose presence in the complex can affect its internalization or mechanism of action once inside the cell. On the other hand, in the case of the five-coordinate complexes, the loss of the sugar tag plausibly determines their substantial leveling of activities. […] The behavior of 4Pt-im was very similar to that of 4Pt-py.
as §2

A431 cells [10] = experiment: LDH release (necrosis); assay type: cell-based, human; settings: 10 and 20 µM, 48 h
Protocol: as §1
The occurrence of necrosis was determined by measuring the release of lactate dehydrogenase (LDH) in the culture medium, as described by Sucha et al.. The LDH content of the medium from untreated cells was referred to as a spontaneous release, whereas the LDH total cellular content was determined upon cell lysis. The percentage of LDH release was calculated as:(1) LDH release % = [experimental−spontaneus release/total content−spontaneous release]×100
as §3, with “4Pt-py. (A) Glucose-transporter-dependent cytotoxicity of 4Pt-py on A431 cells.” for “4Pt-py.”

procaspase-3 = settings: A431 cells, 12 μM, 48 h
Protocol: (§4) The activation of the apoptotic pathway was analyzed by Western blotting and an analysis of the mitochondrial potential as it is well known that mitochondrial outer membrane permeabilization is essential to initiate mitochondrial apoptosis.
(§5) A431 cells were plated at a density of 3 × 10^5 cells cm^−2 in a complete medium for 24 h and then treated for 48 h with 12 µM 4Pt-py. At the end of the incubation, both untreated and treated cells were analyzed, as described previously for Western blot analyses. Upon the determination of total protein concentration in the supernatant by the Bradford assay, samples were analyzed by SDS-PAGE and Western blot using specific antibodies directed towards procaspase-3 or -9 (Cell Signal Technology, Danvers, MA, USA). β-actin (Sigma-Aldrich) or GAPDH (Thermo Fisher, Rockford, IL, USA) was used as the loading control. Each value is the mean of three independent experiments, each with three determinations. Significance was determined by Student’s t-test.
(§6) A431 cells were incubated with 12 μM of 4Pt-py for 48 h. (A,B) Analysis by Western blotting of pro-caspase-3 and -9. Β-actin or GAPDH was used as the loading control.

procaspase-9 = settings: A431 cells, 12 μM, 48 h
Protocol: as §4, §5, §6

A431 cells [11] = settings: IC50 value (12 µM) and 20 µM, 48 h
Protocol: as §4
Each value is the mean of three independent experiments, each with three determinations. Significance was determined by Student’s t-test.
as §6

## CC(=O)OC[C@H]1O[C@@H](n2cc(-c3c[n+]([Pt-2]4([CH3])[n+]5cccc6ccc7ccc[n+]4c7c65)cn3C)nn2)[C@H](OC(C)=O)[C@@H](OC(C)=O)[C@@H]1OC(C)=O.O=S(=O)([O-])C(F)(F)F [4Pt-im]
[1]
  IC50: 27 ± 7 µM
[2]
  IC50: 16 ± 8 µM
  Selectivity Index H9c2/A431: 3.3
  Selectivity Index HaCaT/A431: 1.69
[3]
  IC50: 53 ± 11 µM
[4]
  IC50: 43 ± 7 µM
  Selectivity Index H9c2/MCF7: 1.23
  Selectivity Index HaCaT/MCF7: 0.63
[5]; 1:1 v/v D2O:acetone-d6, over 3 days
  Structural variations in solution (1H-NMR): No appreciable structural variations

## N.N.[Cl][Pt][Cl] [Cisplatin, reference compound]
[2]
  Selectivity Index H9c2/A431: 0.2
  Selectivity Index HaCaT/A431: 0.17
[3]
  IC50: 8 ± 2.1 µM
[4]
  IC50: 18 ± 1.6 µM
  Selectivity Index H9c2/MCF7: 0.44
[6]
  IC50: 6.6 ± 0.3 µM
[7]
  IC50: 39 ± 12 µM

## O=c1c(O)c(-c2ccc(O)c(O)c2)oc2cc(O)cc(O)c12 [quercetin, reference compound]
A431 cells [8]; 5 μM, data not shown
  Lethality of quercetin alone: non-lethal concentration

## Cn1c[n+]([Pt-2]2([CH3])[n+]3cccc4ccc5ccc[n+]2c5c43)cc1-c1cn([C@@H]2O[C@H](CO)[C@@H](O)[C@H](O)[C@H]2O)nn1.O=S(=O)([O-])C(F)(F)F [4Pt-imdep]
[1]
  IC50: > 200 µM
[2]
  IC50: > 200 µM
[3]
  IC50: > 200 µM
[4]
  IC50: > 200 µM
[9]
  Toxic activity (in words): No toxic activity was observed

## CC(=O)OC[C@H]1O[C@@H](n2cc(-c3ccc[n+]([Pt-2]4([CH3])[n+]5cccc6ccc7ccc[n+]4c7c65)c3)nn2)[C@H](OC(C)=O)[C@@H](OC(C)=O)[C@@H]1OC(C)=O.O=S(=O)([O-])C(F)(F)F [4Pt-py]
[1]
  IC50: 66 ± 11 µM
[2]
  IC50: 12 ± 2 µM
  Selectivity Index H9c2/A431: 1.83
  Selectivity Index HaCaT/A431: 5.5
[3]
  IC50: 22 ± 10 µM
[4]
  IC50: 35 ± 4 µM
  Selectivity Index H9c2/MCF7: 0.63
  Selectivity Index HaCaT/MCF7: 1.88
A431 cells [8]; A431 cells, 0.5–200 μM compound ± 5 μM quercetin, 48 h
  Inhibition of cytotoxicity by glucose transporter inhibitor quercetin: no inhibition of cytotoxicity was observed in the presence of quercetin
A431 cells [10]
  LDH release: no LDH release was observed
procaspase-3
  Pro-caspase-3 signal: small but significant decrease
procaspase-9
  Pro-caspase-9 signal: small but significant decrease
A431 cells [11]
  Mitochondrial potential (Δψm): significant decrease
[5]; 1:1 v/v PB:DMSO-d6, 37 °C
  Time to equilibrium of sugar ligand/DMSO exchange: 24 h
